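Method: 48-hour compound exposure of cells in 96-well plates, five concentrations, linear interpolation of endpoints. The concentration for 50% growth inhibition is given as GI50.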 The source made the active and inactive calls. Cut-off read from the data, not from the text of the source: active = GI50 up to about 1.1 µM and inactive = higher.
How the values were obtained:
Assay in all cases: NCI-60 cell line screen, 48 h
KM12 = test system: KM12
OVCAR-3 = test system: OVCAR-3
Malme-3M = test system: Malme-3M
SK-OV-3 = test system: SK-OV-3
U-251 = test system: U-251
M19-MEL = test system: M19-MEL
SF-268 = test system: SF-268
CCRF-CEM = test system: CCRF-CEM
OVCAR-5 = test system: OVCAR-5
SNB-78 = test system: SNB-78
PC-3 = test system: PC-3
MDA-MB-231 = test system: MDA-MB-231
T47D = test system: T47D
HCT-116 = test system: HCT-116
LXFL 529 = test system: LXFL 529
K562 = test system: K562
BT-549 = test system: BT-549
SNB-19 = test system: SNB-19
DMS-273 = test system: DMS-273
NCI-H23 = test system: NCI-H23
NCI-H226 = test system: NCI-H226
DU-145 = test system: DU-145
SNB-75 = test system: SNB-75
M14 = test system: M14
SK-MEL-28 = test system: SK-MEL-28
SW-620 = test system: SW-620
NCI-H522 = test system: NCI-H522
Hs-578T = test system: Hs-578T
NCI/ADR-RES = test system: NCI/ADR-RES
OVCAR-8 = test system: OVCAR-8
HOP-18 = test system: HOP-18
LOX IMVI = test system: LOX IMVI
OVCAR-4 = test system: OVCAR-4
HCC 2998 = test system: HCC 2998
HOP-92 = test system: HOP-92
MDA-N = test system: MDA-N
CAKI-1 = test system: CAKI-1
SN12C = test system: SN12C
SK-MEL-5 = test system: SK-MEL-5
XF498 = test system: XF498
ACHN = test system: ACHN
UO-31 = test system: UO-31
EKVX = test system: EKVX
A549 = test system: A549
SR = test system: SR
NCI-H460 = test system: NCI-H460
MDA-MB-435 = test system: MDA-MB-435
MCF7 = test system: MCF7
TK-10 = test system: TK-10
HL-60 = test system: HL-60
COLO 205 = test system: COLO 205
RPMI-8226 = test system: RPMI-8226
SF-295 = test system: SF-295
SK-MEL-2 = test system: SK-MEL-2
HT-29 = test system: HT-29
786-0 = test system: 786-0
HCT-15 = test system: HCT-15
HOP-62 = test system: HOP-62
MOLT-4 = test system: MOLT-4
UACC-62 = test system: UACC-62
RXF 393 = test system: RXF 393
SF-539 = test system: SF-539
A498 = test system: A498
UACC-257 = test system: UACC-257
DMS-114 = test system: DMS-114
IGROV-1 = test system: IGROV-1
DLD-1 = test system: DLD-1
KM-20L2 = test system: KM-20L2

Structure (SMILES): Nc1cccc(-c2cc(O)c3cc4c(cc3n2)OCO4)c1
- GI50 (KM12): 0.593 µM (active)
- GI50 (OVCAR-3): 0.188 µM (active)
- GI50 (Malme-3M): 0.318 µM (active)
- GI50 (SK-OV-3): 1.28 µM (inactive)
- GI50 (U-251): 1.81 µM (inactive)
- GI50 (M19-MEL): 0.931 µM (active)
- GI50 (SF-268): 1.77 µM (inactive)
- GI50 (CCRF-CEM): 0.665 µM (active)
- GI50 (OVCAR-5): > 100 µM (inactive)
- GI50 (SNB-78): 0.834 µM (active)
- GI50 (PC-3): 0.644 µM (active)
- GI50 (MDA-MB-231): 1.73 µM (inactive)
- GI50 (T47D): > 100 µM (inactive)
- GI50 (HCT-116): 0.389 µM (active)
- GI50 (LXFL 529): 0.527 µM (active)
- GI50 (K562): 0.792 µM (active)
- GI50 (BT-549): > 100 µM (inactive)
- GI50 (SNB-19): 2.19 µM (inactive)
- GI50 (DMS-273): 0.889 µM (active)
- GI50 (NCI-H23): 2.86 µM (inactive)
- GI50 (NCI-H226): 1.85 µM (inactive)
- GI50 (DU-145): 0.64 µM (active)
- GI50 (SNB-75): 0.0995 µM (active)
- GI50 (M14): 0.993 µM (active)
- GI50 (SK-MEL-28): 2.19 µM (inactive)
- GI50 (SW-620): 0.519 µM (active)
- GI50 (NCI-H522): 0.273 µM (active)
- GI50 (Hs-578T): 0.389 µM (active)
- GI50 (NCI/ADR-RES): 0.581 µM (active)
- GI50 (OVCAR-8): 2.11 µM (inactive)
- GI50 (HOP-18): 40.2 µM (inactive)
- GI50 (LOX IMVI): 1.23 µM (inactive)
- GI50 (OVCAR-4): > 61.9 µM (inactive)
- GI50 (HCC 2998): 1.83 µM (inactive)
- GI50 (HOP-92): 1.02 µM (active)
- GI50 (MDA-N): 0.216 µM (active)
- GI50 (CAKI-1): 3.68 µM (inactive)
- GI50 (SN12C): 4.59 µM (inactive)
- GI50 (SK-MEL-5): 0.427 µM (active)
- GI50 (XF498): 7.26 µM (inactive)
- GI50 (ACHN): 3.87 µM (inactive)
- GI50 (UO-31): 12.5 µM (inactive)
- GI50 (EKVX): 3.27 µM (inactive)
- GI50 (A549): 4.09 µM (inactive)
- GI50 (SR): 0.191 µM (active)
- GI50 (NCI-H460): 4.28 µM (inactive)
- GI50 (MDA-MB-435): 0.16 µM (active)
- GI50 (MCF7): 0.592 µM (active)
- GI50 (TK-10): 6.64 µM (inactive)
- GI50 (HL-60): 1.93 µM (inactive)
- GI50 (COLO 205): 0.384 µM (active)
- GI50 (RPMI-8226): 6.35 µM (inactive)
- GI50 (SF-295): 2.87 µM (inactive)
- GI50 (SK-MEL-2): 0.45 µM (active)
- GI50 (HT-29): 1.74 µM (inactive)
- GI50 (786-0): 2.16 µM (inactive)
- GI50 (HCT-15): 1.23 µM
- GI50 (HOP-62): 1.87 µM (inactive)
- GI50 (MOLT-4): 2.07 µM (inactive)
- GI50 (UACC-62): 0.402 µM (active)
- GI50 (RXF 393): 1.02 µM (active)
- GI50 (SF-539): 0.544 µM (active)
- GI50 (A498): 2.45 µM (inactive)

Structure (SMILES): C=C1CCC2(C(C)=O)COC1(C)O2 (stereo not drawn)
- GI50 (KM12): > 100 µM (inactive)
- GI50 (OVCAR-3): > 100 µM (inactive)
- GI50 (Malme-3M): > 100 µM (inactive)
- GI50 (SK-OV-3): > 100 µM (inactive)
- GI50 (U-251): > 100 µM (inactive)
- GI50 (M19-MEL): > 100 µM (inactive)
- GI50 (UACC-257): > 100 µM (inactive)
- GI50 (CCRF-CEM): > 100 µM (inactive)
- GI50 (HCT-116): > 100 µM (inactive)
- GI50 (K562): > 100 µM (inactive)
- GI50 (SNB-19): > 100 µM (inactive)
- GI50 (DMS-273): > 100 µM (inactive)
- GI50 (NCI-H23): > 10 µM (inactive)
- GI50 (NCI-H226): > 100 µM (inactive)
- GI50 (SNB-75): > 100 µM (inactive)
- GI50 (M14): > 100 µM (inactive)
- GI50 (SK-MEL-28): > 100 µM (inactive)
- GI50 (SW-620): > 100 µM (inactive)
- GI50 (NCI-H522): > 10 µM (inactive)
- GI50 (OVCAR-8): > 100 µM (inactive)
- GI50 (HOP-18): > 100 µM (inactive)
- GI50 (LOX IMVI): > 100 µM (inactive)
- GI50 (SN12C): > 100 µM (inactive)
- GI50 (SK-MEL-5): > 100 µM (inactive)
- GI50 (XF498): 62.2 µM (inactive)
- GI50 (ACHN): > 100 µM (inactive)
- GI50 (UO-31): > 100 µM (inactive)
- GI50 (EKVX): > 100 µM (inactive)
- GI50 (DMS-114): > 100 µM (inactive)
- GI50 (A549): > 100 µM (inactive)
- GI50 (NCI-H460): > 100 µM (inactive)
- GI50 (IGROV-1): > 100 µM (inactive)
- GI50 (TK-10): > 100 µM (inactive)
- GI50 (HL-60): > 100 µM (inactive)
- GI50 (COLO 205): > 100 µM (inactive)
- GI50 (RPMI-8226): > 100 µM (inactive)
- GI50 (SF-295): > 100 µM (inactive)
- GI50 (HT-29): > 100 µM (inactive)
- GI50 (786-0): > 100 µM (inactive)
- GI50 (HCT-15): > 100 µM
- GI50 (HOP-62): > 100 µM (inactive)
- GI50 (DLD-1): > 100 µM (inactive)
- GI50 (MOLT-4): > 100 µM (inactive)
- GI50 (UACC-62): > 100 µM (inactive)
- GI50 (RXF 393): > 10 µM (inactive)
- GI50 (SF-539): > 100 µM (inactive)

Structure (SMILES): CC(C)(C)N/N=N/c1cn(C2OC(CO)C(O)C2O)c(=O)[nH]c1=O (stereo not drawn)
- GI50 (KM12): > 100 µM (inactive)
- GI50 (KM-20L2): > 100 µM (inactive)
- GI50 (OVCAR-3): > 100 µM (inactive)
- GI50 (Malme-3M): > 100 µM (inactive)
- GI50 (SK-OV-3): > 100 µM (inactive)
- GI50 (M19-MEL): > 100 µM (inactive)
- GI50 (SF-268): > 100 µM (inactive)
- GI50 (UACC-257): > 100 µM (inactive)
- GI50 (CCRF-CEM): 26.2 µM (inactive)
- GI50 (OVCAR-5): > 100 µM (inactive)
- GI50 (SNB-78): > 100 µM (inactive)
- GI50 (HCT-116): 40.7 µM (inactive)
- GI50 (LXFL 529): > 100 µM (inactive)
- GI50 (K562): 40.7 µM (inactive)
- GI50 (SNB-19): > 100 µM (inactive)
- GI50 (DMS-273): > 100 µM (inactive)
- GI50 (NCI-H23): > 100 µM (inactive)
- GI50 (NCI-H226): > 100 µM (inactive)
- GI50 (SNB-75): > 100 µM (inactive)
- GI50 (M14): > 100 µM (inactive)
- GI50 (SK-MEL-28): > 100 µM (inactive)
- GI50 (SW-620): 17.6 µM (inactive)
- GI50 (NCI-H522): > 100 µM (inactive)
- GI50 (OVCAR-8): > 100 µM (inactive)
- GI50 (HOP-18): > 100 µM (inactive)
- GI50 (LOX IMVI): 41.7 µM (inactive)
- GI50 (HCC 2998): > 100 µM (inactive)
- GI50 (HOP-92): > 100 µM (inactive)
- GI50 (CAKI-1): > 100 µM (inactive)
- GI50 (SN12C): > 100 µM (inactive)
- GI50 (SK-MEL-5): > 100 µM (inactive)
- GI50 (ACHN): > 100 µM (inactive)
- GI50 (UO-31): > 100 µM (inactive)
- GI50 (EKVX): > 100 µM (inactive)
- GI50 (DMS-114): 40.3 µM (inactive)
- GI50 (A549): > 100 µM (inactive)
- GI50 (SR): 20.8 µM (inactive)
- GI50 (NCI-H460): 64.9 µM (inactive)
- GI50 (IGROV-1): > 100 µM (inactive)
- GI50 (TK-10): > 100 µM (inactive)
- GI50 (HL-60): 50.9 µM (inactive)
- GI50 (COLO 205): 37.2 µM (inactive)
- GI50 (RPMI-8226): 20 µM (inactive)
- GI50 (SF-295): > 100 µM (inactive)
- GI50 (SK-MEL-2): > 100 µM (inactive)
- GI50 (HT-29): > 100 µM (inactive)
- GI50 (786-0): > 100 µM (inactive)
- GI50 (HCT-15): 43.5 µM
- GI50 (HOP-62): > 100 µM (inactive)
- GI50 (DLD-1): 43.3 µM (inactive)
- GI50 (MOLT-4): > 100 µM (inactive)
- GI50 (UACC-62): > 100 µM (inactive)
- GI50 (RXF 393): 61.4 µM (inactive)
- GI50 (A498): > 100 µM (inactive)
